Measured values from the supplement of paper PMC10290057.
Structures can show the parent of a compound that is named as a salt.

Assays:
HCT116 [1] = assay: AC50 cell viability (CellTiter-Glo); higher = less potent; details: 48 h
HCT116 [2] = assay: efficacy (fitted maximal change in viability relative to DMSO control); higher = less cytotoxic (negative = loss of viability); details: 48 h
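For AC50 cell viability (CellTiter-Glo) in this document: HCT116 colorectal carcinoma cells screened at five concentrations per compound, luminescent viability scaled between DMSO wells and empty wells on each plate, curves fitted per compound.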
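For efficacy (fitted maximal change in viability relative to DMSO control) in this document: Luminescence-based viability readout, five doses per compound, normalized against on-plate DMSO and empty-well controls, followed by dose-response curve fitting for every drug.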

| Compound | AC50 cell viability (HCT116 [1]) [µM] | efficacy (HCT116 [2]) [%] |
| --- | --- | --- |
| Nc1nc(N)c(N=O)c(OCC2CCCCC2)n1 [NU-6027] | 13.2 | -64.3 |
| CCCC1(CCC)CCC2(CCN(CCCN(CC)CC)C2)CC1 [Atiprimod] | 2.63 | -99.3 |
| COc1cc(C(=O)O)ccc1NC(=O)[C@@H]1N[C@@H](CC(C)(C)C)[C@](C#N)(c2ccc(Cl)cc2F)[C@H]1c1cccc(Cl)c1F [Idasanutlin] | 1.66 | -67.9 |
| CCOC(CN1C(=O)[C@](CC(=O)Nc2ccc(C)cc2)(NC(=O)Nc2ccc(C)cc2)c2ccccc21)OCC [AG-041R] | 23.5 | -78.5 |
| CNC1CCC(N(Cc2cccc(-c3ccncc3)c2)C(=O)c2sc3ccccc3c2Cl)CC1 (stereo not drawn) [SAG] | 16.6 | -98.5 |
| N#Cc1ccc(COC[C@H]2O[C@@H](n3c(NCc4ccc(Cl)c(Cl)c4)nc4c(N)ncnc43)[C@H](O)[C@@H]2O)cc1 | 16.6 | -99.6 |
| CCOc1cc(C(=O)N2CCC(N3CCN(C)CC3)CC2)ccc1Nc1ncc2c(n1)N(C1CCCC1)c1ccccc1C(=O)N2C [XMD17-109] | 7.42 | -104 |
| O=C(Nc1cccnc1)N1CCC(Cc2cccc(Oc3ccc(C(F)(F)F)cn3)c2)CC1 [PF-3845] | 13.2 | -82.1 |
| COc1ccc(-c2ccc3c(N4CCOCC4)nc(N4C[C@@H](C)O[C@@H](C)C4)nc3n2)cc1CO | 1.66 | -45.6 |
| COc1cc(N2CCC(O)CC2)ccc1Nc1cc(Nc2ccccc2[S+](=O)([O-])C(C)C)c2cc[nH]c2n1 [MPS1-IN-1] | 3.72 | -73 |
| COc1ccc(-c2cc(C(O)C3CCCCN3)c3ccccc3n2)cc1 (stereo not drawn) | 4.68 | -90.9 |
| CC(C)C[C@H](NC(=O)[C@@H](NC(=O)c1cccc(-c2ccccc2)n1)[C@@H](C)O)B(O)O [Delanzomib] | 0.0362 | -84.8 |
| CC1(C)OC/2=C(\[C@H](NCC3=CC=CC=C3)[C@@H]1O)C(=O)C4=CC=CC=C4C2=O | 2.95 | -96.8 |
| CNC1CCC(N(Cc2cccc(-c3ccncc3)c2)C(=O)c2sc3c(F)ccc(F)c3c2Cl)CC1 (stereo not drawn) [Hh-Ag1.5] | 13.2 | -115 |
| CC(C)N(CCC(=O)c1ccc2ccccc2c1)Cc1ccccc1 | 20.9 | -77.8 |
| CN(CCO)C1CCN(c2ccc(Nc3ncc4c5ccnc(F)c5n(C5CCCC5)c4n3)nc2)CC1 [AM-5992] | 1.02 | -50 |
| C[C@@H](NCCCc1cccc(C(F)(F)F)c1)c1cccc2ccccc12 [Cinacalcet hydrochloride] | 16.6 | -92.6 |
| COc1cc2ncnc(Nc3cccc(Cl)c3)c2cc1OC [AG-1478] | 23.5 | -91.8 |
| Cc1cccc(-c2n[nH]cc2-c2ccc(F)c(-c3cnn(CCO)c3)c2)n1 | 26.3 | -71.1 |
| Fc1ccc(C(OCCN2CCN(CCCc3ccccc3)CC2)c2ccc(F)cc2)cc1 [Vanoxeamine] | 11.8 | -96.8 |
| C[N]1C=C(C=N1)C2=C3\C=N/NC(=O)C4=C3C(=CC(=C4)NC(=O)[C@H](N)C5CCCCC5)[NH]2 | 16.6 | -67.8 |
| Nc1ccc(F)cc1NC(=O)c1ccc(CNC(=O)/C=C/c2cccnc2)cc1 [Chidamide] | 5.9 | -90.4 |
| O=C(Nc1ccccc1Br)N[C@@H]1CCN(c2ccc(C(F)(F)F)cn2)C1 | 16.6 | -39.8 |
| NC1CCCN(c2c(/C=C3\SC(=O)NC3=O)cccc2-c2ccccc2)C1 (stereo not drawn) [AZD-1208] | 23.5 | -67.1 |
